Results as given in patent US10941116B2, “Crystalline forms of mesaconine and preparation methods therefor” (Gooddoctor Pharmaceutical Group Co., Ltd., priority 2018, dated 2021).

Experiments:
Format in all cases: physicochemical
[1] = Solubility test, Chinese pharmacopoeia 2015 edition, general notice; details: solvent: water
Text: The crystalline form A of mesaconine was sampled and tested according to the method of solubility test in the Chinese pharmacopoeia (2015 edition, general notice).

[2] = Influencing factors test (high temperature, high humidity, hard light irradiation), Chinese pharmacopoeia general rule 9001, analyzed by XRPD; details: open flat weighing bottle, 10 days
Description: In addition, the crystalline form A of mesaconine was sampled and tested for influencing factors according to the Guiding principle for stability test of raw materials of drugs and preparations (general rule 9001, the Chinese pharmacopoeia, 2015 edition).
High temperature test: the sample was placed in an open flat weighing bottle at 60° C. for 10 days. Then the sample was tested according to the key inspection items of stability test, and analyzed by X-ray powder diffraction.
High humidity test: the sample was placed in an open flat weighing bottle at 25° C. and 90% relative humidity for 10 days. Then the sample was tested according to the key inspection items of stability test, and analyzed by X-ray powder diffraction.
Hard light irradiation test: the sample was placed in an open flat weighing bottle for 10 days under the illuminance of 4500 lx. Then the sample was tested according to the key inspection items of stability test, and analyzed by X-ray powder diffraction.

[3] = Drug hygroscopicity test, Chinese Pharmacopoeia general rule 9103; details: for Percentage of weight increment(%): single batch
Description: The test was performed according to guiding principles for drug hygroscopicity test in Chinese Pharmacopoeia (general rule 9103, volume 4, 2015 edition).
According to the definition of hygroscopicity in Chinese Pharmacopoeia (general rule 9103, volume 4, 2015 edition): when the weight increment by hygroscopicity is less than 2% but not less than 0.2%, it has slight hygroscopicity. The weight increment of crystalline form A of mesaconine was 0.85% under the test conditions, which has slight hygroscopicity and good deliquescence resistance.

[4] = Stability of crystalline form A of mesaconine by XRPD comparison (storage for 4 weeks; heating to 180° C.)
Description: After the samples of crystalline form A of mesaconine were placed at 25° C., 60% RH and 40° C., 75% RH for 4 weeks, it was performed XRPD test. The test result was compared with XRPD spectrum of comparative sample of crystalline form A of the mesaconine (XRPD spectrum of crystalline form A of mesaconine before stability test), and the results were shown in FIG. 4. Another sample of crystalline form A of mesaconine was heated to 180° C., and then was performed XRPD test. The test result was compared with XRPD spectrum of comparative sample of crystalline form A of the mesaconine (XRPD spectrum of crystalline form A of mesaconine before stability test), and the results were shown in FIG. 5.

[5] = Stability of crystalline form B of mesaconine by XRPD comparison after heating to 115° C.; details: heated to 115° C.
Description: Appropriate amount of crystalline form B of mesaconine was sampled and heated to 115° C., and then was performed XRPD test. The test result was compared with XRPD spectrum of comparative sample of crystalline form B of mesaconine (XRPD spectrum of crystalline form B of mesaconine before stability test), and the results were shown in FIG. 9.

Compound | Solubility [1] | Position and relative intensity of main XRPD diffraction peaks after high humidity test ([2]; 25° C., 90% relative humidity) | Position and relative intensity of main XRPD diffraction peaks after high temperature test ([2]; 60° C.) | Position and relative intensity of main XRPD diffraction peaks after hard light irradiation test ([2]; illuminance 4500 lx) | Hygroscopicity class ([3]; Chinese Pharmacopoeia definition) | Percentage of average weight increment(%) ([3]; hygroscopicity test, average of two batches) | Percentage of weight increment(%) ([3]; hygroscopicity test, listed as Sample 1) | Percentage of weight increment(%) ([3]; hygroscopicity test, listed as Sample 2) | Crystalline form stability (XRPD main diffraction peaks) ([4]; 25° C., 60% RH for 4 weeks) | Crystalline form stability (XRPD main diffraction peaks) ([4]; 40° C., 75% RH for 4 weeks) | Crystalline form stability (XRPD main diffraction peaks) ([4]; heated to 180° C.) | Crystalline form stability (XRPD main diffraction peaks) [5]
COC[C@]12CN(C)[C@@H]3[C@@H]4[C@H](OC)[C@H]1[C@@]3([C@@H](OC)C[C@H]2O)[C@@H]1C[C@@]2(O)[C@H](O)[C@@H]1[C@]4(O)[C@@H](O)[C@@H]2OC [crystalline form A of mesaconine, N-methyl-1α,6α,16β,18-tetramethoxyl-4-methyl-aconite-3α,8β,13β,14α,15α-pentol] | easily soluble (1 g of solute can be dissolved in 1~10 ml of solvent) | had not changed significantly | had not changed significantly | had not changed significantly | slight hygroscopicity (when the weight increment by hygroscopicity is less than 2% but not less than 0.2%, it has slight hygroscopicity) | 0.85% | 0.85% | 0.84% | crystalline form did not change | crystalline form did not change | crystalline form did not change | –
N-methyl-1α,6α,16β,18-tetramethoxyl-4-methyl-aconite-3α,8β,13β,14α,15α-pentol [crystalline form B of mesaconine] | – | – | – | – | – | – | – | – | – | – | – | crystalline form did not change
